Measured values as given in ChEMBL document CHEMBL4680318, “(S)-Erypoegin K, an isoflavone isolated from Erythrina poeppigiana, is a novel inhibitor of topoisomerase IIα: Induction of G2 phase arrest in human gastric cancer cells” (Bioorg Med Chem, 2021).
Active and inactive are the calls of the source. The calls are words filed in the database; no cut-off is given here.

Assays:
[1] = Growth inhibition of human HBC4 cells measured after 48 hrs by sulforhodamine B assay; format: functional
[2] = Growth inhibition of human BSY1 cells measured after 48 hrs by sulforhodamine B assay; format: functional; details: BSY-1
[3] = Growth inhibition of human HBC5 cells measured after 48 hrs by sulforhodamine B assay; format: functional
MCF7 = assay: Growth inhibition of human MCF7 cells measured after 48 hrs by sulforhodamine B assay; format: functional
MDA-MB-231 = assay: Growth inhibition of human MDA-MB-231 cells measured after 48 hrs by sulforhodamine B assay; format: functional
U-251 = assay: Growth inhibition of human U-251 cells measured after 48 hrs by sulforhodamine B assay; format: functional
SF-268 = assay: Growth inhibition of human SF-268 cells measured after 48 hrs by sulforhodamine B assay; format: functional
SF-295 = assay: Growth inhibition of human SF-295 cells measured after 48 hrs by sulforhodamine B assay; format: functional
SF-539 = assay: Growth inhibition of human SF-539 cells measured after 48 hrs by sulforhodamine B assay; format: functional
SNB-75 = assay: Growth inhibition of human SNB-75 cells measured after 48 hrs by sulforhodamine B assay; format: functional
SNB-78 = assay: Growth inhibition of human SNB-78 cells measured after 48 hrs by sulforhodamine B assay; format: functional
HCC 2998 = assay: Growth inhibition of human HCC 2998 cells measured after 48 hrs by sulforhodamine B assay; format: functional
KM12 = assay: Growth inhibition of human KM12 cells measured after 48 hrs by sulforhodamine B assay; format: functional
HT-29 = assay: Growth inhibition of human HT-29 cells measured after 48 hrs by sulforhodamine B assay; format: functional
HCT-15 = assay: Growth inhibition of human HCT-15 cells measured after 48 hrs by sulforhodamine B assay; format: functional
HCT-116 = assay: Growth inhibition of human HCT-116 cells measured after 48 hrs by sulforhodamine B assay; format: functional
NCI-H23 = assay: Growth inhibition of human NCI-H23 cells measured after 48 hrs by sulforhodamine B assay; format: functional
NCI-H226 = assay: Growth inhibition of human NCI-H226 cells measured after 48 hrs by sulforhodamine B assay; format: functional
NCI-H522 = assay: Growth inhibition of human NCI-H522 cells measured after 48 hrs by sulforhodamine B assay; format: functional
NCI-H460 = assay: Growth inhibition of human NCI-H460 cells measured after 48 hrs by sulforhodamine B assay; format: functional
A549 = assay: Growth inhibition of human A549 cells measured after 48 hrs by sulforhodamine B assay; format: functional
DMS-273 = assay: Growth inhibition of human DMS-273 cells measured after 48 hrs by sulforhodamine B assay; format: functional
DMS-114 = assay: Growth inhibition of human DMS-114 cells measured after 48 hrs by sulforhodamine B assay; format: functional
LOX IMVI = assay: Growth inhibition of human LOX IMVI cells measured after 48 hrs by sulforhodamine B assay; format: functional
OVCAR-3 = assay: Growth inhibition of human OVCAR-3 cells measured after 48 hrs by sulforhodamine B assay; format: functional
OVCAR-4 = assay: Growth inhibition of human OVCAR-4 cells measured after 48 hrs by sulforhodamine B assay; format: functional
OVCAR-5 = assay: Growth inhibition of human OVCAR-5 cells measured after 48 hrs by sulforhodamine B assay; format: functional
OVCAR-8 = assay: Growth inhibition of human OVCAR-8 cells measured after 48 hrs by sulforhodamine B assay; format: functional
SK-OV-3 = assay: Growth inhibition of human SK-OV-3 cells measured after 48 hrs by sulforhodamine B assay; format: functional
RXF 631 = assay: Growth inhibition of human RXF 631 cells measured after 48 hrs by sulforhodamine B assay; format: functional
ACHN = assay: Growth inhibition of human ACHN cells measured after 48 hrs by sulforhodamine B assay; format: functional
St-4 = assay: Growth inhibition of human St-4 cells measured after 48 hrs by sulforhodamine B assay; format: functional
MKN-1 = assay: Growth inhibition of human MKN-1 cells measured after 48 hrs by sulforhodamine B assay; format: functional
MKN-7 = assay: Growth inhibition of human MKN-7 cells measured after 48 hrs by sulforhodamine B assay; format: functional
MKN-28 = assay: Growth inhibition of human MKN-28 cells measured after 48 hrs by sulforhodamine B assay; format: functional
MKN-45 = assay: Growth inhibition of human MKN-45 cells measured after 48 hrs by sulforhodamine B assay; format: functional
MKN-74 = assay: Growth inhibition of human MKN-74 cells measured after 48 hrs by sulforhodamine B assay; format: functional
DU-145 = assay: Growth inhibition of human DU-145 cells measured after 48 hrs by sulforhodamine B assay; format: functional
PC-3 = assay: Growth inhibition of human PC-3 cells measured after 48 hrs by sulforhodamine B assay; format: functional
GCIY = assay: Antitumor activity against human GCIY cells xenografted in KSN/Slc nude mouse assessed as reduction in tumor size at 40 mg/kg, ip administered twice a week for 4 weeks starting from day 4 post inoculation by vernier caliper method; format: functional, organism-based
[4] = Toxicity in KSN/Slc nude mouse xenografted with human GCIY cells assessed as effect on body weight at 40 mg/kg, ip administered twice a week for 4 weeks starting from day 4 post inoculation; format: organism-based; details: in vivo, 672 h
[5] = target: DNA topoisomerase 2-alpha (Homo sapiens) (UniProt P11388); assay: Inhibition of human DNA topoisomerase 2alpha assessed as stabilization of DNA cleavage complex at 50 to 200 uM using supercoiled pSL1180 plasmid DNA as substrate measured after 30 mins by ethidium bromide staining-based UV imaging analysis; details: dose 50-200 µM
Chain of DNA topoisomerase 2-alpha (Homo sapiens) (P11388 whole entry): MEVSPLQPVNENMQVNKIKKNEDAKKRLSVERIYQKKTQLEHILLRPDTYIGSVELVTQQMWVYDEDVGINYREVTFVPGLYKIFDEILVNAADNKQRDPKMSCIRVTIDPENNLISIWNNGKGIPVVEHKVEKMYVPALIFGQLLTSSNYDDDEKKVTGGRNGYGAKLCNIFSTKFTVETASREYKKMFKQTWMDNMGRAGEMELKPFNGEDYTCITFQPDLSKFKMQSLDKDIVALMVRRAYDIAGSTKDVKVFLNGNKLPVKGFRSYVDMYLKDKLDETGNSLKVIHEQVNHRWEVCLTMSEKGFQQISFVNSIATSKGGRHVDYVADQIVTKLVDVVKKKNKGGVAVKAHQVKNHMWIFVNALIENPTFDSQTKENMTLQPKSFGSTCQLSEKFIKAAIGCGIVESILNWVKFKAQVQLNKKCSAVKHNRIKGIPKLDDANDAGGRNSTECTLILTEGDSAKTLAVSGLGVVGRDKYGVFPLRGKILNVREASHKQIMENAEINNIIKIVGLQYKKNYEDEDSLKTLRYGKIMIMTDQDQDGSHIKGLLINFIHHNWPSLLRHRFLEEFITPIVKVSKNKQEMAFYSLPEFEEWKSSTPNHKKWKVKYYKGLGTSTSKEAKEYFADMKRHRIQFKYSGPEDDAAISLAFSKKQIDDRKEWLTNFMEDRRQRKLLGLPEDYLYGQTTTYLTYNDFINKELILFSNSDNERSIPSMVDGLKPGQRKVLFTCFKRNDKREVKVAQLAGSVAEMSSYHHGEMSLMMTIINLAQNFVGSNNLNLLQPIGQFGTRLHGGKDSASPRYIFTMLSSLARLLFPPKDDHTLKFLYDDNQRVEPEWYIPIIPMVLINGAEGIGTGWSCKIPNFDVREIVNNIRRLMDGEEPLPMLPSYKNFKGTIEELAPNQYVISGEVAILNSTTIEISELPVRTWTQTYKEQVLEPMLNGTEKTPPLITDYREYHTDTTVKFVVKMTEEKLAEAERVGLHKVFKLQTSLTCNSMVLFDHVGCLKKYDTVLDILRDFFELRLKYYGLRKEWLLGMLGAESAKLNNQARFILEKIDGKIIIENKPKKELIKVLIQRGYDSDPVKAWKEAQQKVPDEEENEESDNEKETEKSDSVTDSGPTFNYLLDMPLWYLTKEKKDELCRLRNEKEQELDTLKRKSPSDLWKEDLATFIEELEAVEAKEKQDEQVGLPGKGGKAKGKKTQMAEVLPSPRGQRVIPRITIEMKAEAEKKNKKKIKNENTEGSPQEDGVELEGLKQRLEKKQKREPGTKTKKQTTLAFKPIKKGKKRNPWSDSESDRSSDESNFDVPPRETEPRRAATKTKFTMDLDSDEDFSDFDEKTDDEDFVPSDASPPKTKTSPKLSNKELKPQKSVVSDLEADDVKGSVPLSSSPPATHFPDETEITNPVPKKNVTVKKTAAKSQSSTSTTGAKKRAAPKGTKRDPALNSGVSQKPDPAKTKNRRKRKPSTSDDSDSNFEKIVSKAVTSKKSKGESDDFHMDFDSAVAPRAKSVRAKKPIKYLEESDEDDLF

CC(C)(O)[C@H]1Cc2c(cc(O)c3c(=O)c(-c4ccc(O)cc4)coc23)O1
GI50 [1]: > 100 µM | GI50 [2]: > 100 µM | GI50 [3]: > 100 µM | GI50 (MCF7): 89.1 µM | GI50 (MDA-MB-231): 45.7 µM | GI50 (U-251): > 100 µM | GI50 (SF-268): > 100 µM | GI50 (SF-295): 52.5 µM | GI50 (SF-539): 53.7 µM | GI50 (SNB-75): 16.6 µM | GI50 (SNB-78): > 100 µM | GI50 (HCC 2998): > 100 µM | GI50 (KM12): > 100 µM | GI50 (HT-29): > 100 µM | GI50 (HCT-15): > 100 µM | GI50 (HCT-116): > 100 µM | GI50 (NCI-H23): > 100 µM | GI50 (NCI-H226): > 100 µM | GI50 (NCI-H522): 47.9 µM | GI50 (NCI-H460): > 100 µM | GI50 (A549): > 100 µM | GI50 (DMS-273): > 100 µM | GI50 (DMS-114): > 100 µM | GI50 (LOX IMVI): > 100 µM | GI50 (OVCAR-3): > 100 µM | GI50 (OVCAR-4): > 100 µM | GI50 (OVCAR-5): > 100 µM | GI50 (OVCAR-8): > 100 µM | GI50 (SK-OV-3): 26.9 µM | GI50 (RXF 631): 85.1 µM | GI50 (ACHN): > 100 µM | GI50 (St-4): > 100 µM | GI50 (MKN-1): > 100 µM | GI50 (MKN-7): > 100 µM | GI50 (MKN-28): > 100 µM | GI50 (MKN-45): > 100 µM | GI50 (MKN-74): > 100 µM | GI50 (DU-145): > 100 µM | GI50 (PC-3): 91.2 µM | Activity (GCIY): inactive | Activity [4]: Non-Toxic

COc1cc([C@@H]2c3cc4c(cc3[C@@H](O[C@@H]3O[C@@H]5CO[C@@H](C)O[C@H]5[C@H](O)[C@H]3O)[C@H]3COC(=O)[C@H]23)OCO4)cc(OC)c1O [ETOPOSIDE]
GI50 [1]: 16.6 µM | GI50 [2]: 5.37 µM | GI50 [3]: 51.3 µM | GI50 (MCF7): 2.24 µM | GI50 (MDA-MB-231): 21.4 µM | GI50 (U-251): 2.34 µM | GI50 (SF-268): 5.37 µM | GI50 (SF-295): 2.75 µM | GI50 (SF-539): 1.86 µM | GI50 (SNB-75): 6.92 µM | GI50 (SNB-78): 44.7 µM | GI50 (HCC 2998): 5.62 µM | GI50 (KM12): 14.1 µM | GI50 (HT-29): 22.9 µM | GI50 (HCT-15): 16.2 µM | GI50 (HCT-116): 14.8 µM | GI50 (NCI-H23): 4.07 µM | GI50 (NCI-H226): 4.9 µM | GI50 (NCI-H522): 4.68 µM | GI50 (NCI-H460): 1.15 µM | GI50 (A549): 2 µM | GI50 (DMS-273): 1.74 µM | GI50 (DMS-114): 2.88 µM | GI50 (LOX IMVI): 3.47 µM | GI50 (OVCAR-3): 23.4 µM | GI50 (OVCAR-4): 38.9 µM | GI50 (OVCAR-5): 19.5 µM | GI50 (OVCAR-8): 6.76 µM | GI50 (SK-OV-3): 3.98 µM | GI50 (RXF 631): 12.3 µM | GI50 (ACHN): 2.09 µM | GI50 (St-4): 20.9 µM | GI50 (MKN-1): 2.14 µM | GI50 (MKN-7): 25.7 µM | GI50 (MKN-28): 21.4 µM | GI50 (MKN-45): 7.94 µM | GI50 (MKN-74): 49 µM | GI50 (DU-145): 2.82 µM | GI50 (PC-3): > 100 µM | inhibition [5]: Active

O=c1[nH]cc(F)c(=O)[nH]1 [FLUOROURACIL]
Activity (GCIY): Active | Activity [4]: Non-Toxic

O=c1c(-c2ccc(O)cc2)coc2cc(O)cc(O)c12 [GENISTEIN]
GI50 [1]: 43.7 µM | GI50 [2]: 43.7 µM | GI50 [3]: 26.9 µM | GI50 (MCF7): 42.7 µM | GI50 (MDA-MB-231): 37.2 µM | GI50 (U-251): 42.7 µM | GI50 (SF-268): 30.2 µM | GI50 (SF-295): 28.8 µM | GI50 (SF-539): 26.3 µM | GI50 (SNB-75): 15.8 µM | GI50 (SNB-78): 38.9 µM | GI50 (HCC 2998): 45.7 µM | GI50 (KM12): 50.1 µM | GI50 (HT-29): 53.7 µM | GI50 (HCT-15): 30.2 µM | GI50 (HCT-116): 25.1 µM | GI50 (NCI-H23): 36.3 µM | GI50 (NCI-H226): 27.5 µM | GI50 (NCI-H522): 17.8 µM | GI50 (NCI-H460): 26.3 µM | GI50 (A549): 26.3 µM | GI50 (DMS-273): 21.9 µM | GI50 (DMS-114): 49 µM | GI50 (LOX IMVI): 18.2 µM | GI50 (OVCAR-3): 31.6 µM | GI50 (OVCAR-4): 43.7 µM | GI50 (OVCAR-5): 50.1 µM | GI50 (OVCAR-8): 35.5 µM | GI50 (SK-OV-3): 89.1 µM | GI50 (RXF 631): 40.7 µM | GI50 (ACHN): 19.5 µM | GI50 (St-4): 46.8 µM | GI50 (MKN-1): 25.1 µM | GI50 (MKN-7): 30.2 µM | GI50 (MKN-28): 39.8 µM | GI50 (MKN-45): 32.4 µM | GI50 (MKN-74): 36.3 µM
